Calls of active or inactive are those of the source. The calls are words filed in the database; no cut-off is given here.

Series [1] is described as follows: Growth inhibition of porcine primary hepatocytes after 72 hrs by SRB assay. Particulars: pig. In kind it is cell-based, Sus scrofa, Hepatocyte. In general terms: In SRB staining, fixed cells bind dye roughly in proportion to their protein.
Series [2] concerns HepG2. Kind of series: Growth inhibition of human HepG2 cells after 72 hrs by SRB assay. In kind it is functional. Particulars: HepG2, 72 h.
Series [3] has as its system HepG2. Kind of series: Induction of cell cycle arrest in human HepG2 cells assessed as decrease in DNA content at S phase at 4.1 uM after 72 hrs by propidium iodide staining-based flow cytometric analysis. It counts as functional. In general terms: In flow cytometry, cells or beads pass a laser one at a time.
In series [4] the test system is HepG2. Briefly: Induction of cell cycle arrest in human HepG2 cells assessed as increase in DNA content at G2/M phase at 4.1 uM after 72 hrs by propidium iodide staining-based flow cytometric analysis. It counts as functional.
Series [5] deals with HepG2. Briefly: Induction of cell cycle arrest in human HepG2 cells assessed as increase in sub-G1 peak at 4.1 uM after 72 hrs by propidium iodide staining-based flow cytometric analysis. In kind it is functional.

In general, GI50 refers to the concentration at which growth is held to half of that of the control. A low value points to greater sensitivity of the cells. Take `COC(=O)c1sc2cc(C#Cc3ccccc3F)cnc2c1N`: in series [1], the GI50 at 72 h was above 125 µM. Besides, in series [2], the GI50 was above 125 µM.
In series [1], `COC(=O)c1sc2cc(C#Cc3ccccn3)cnc2c1N` yielded a GI50 at 72 h of 56.9 µM. For the same molecule, the concentration for 50% growth inhibition (GI50) in series [2] was found to be 75.7 µM.
The like results for `COC(=O)c1sc2cc(C#Cc3ccc(N)cc3)cnc2c1N` were, in that order, above 125 µM and 25.9 µM.
In turn, `COC(=O)c1sc2cc(-c3ccoc3)cnc2c1N` yielded a GI50 at 72 h in series [1] above 125 µM. The same molecule gave a GI50 in series [2] above 125 µM.
`COC(=O)c1sc2cc(-c3ccc4ccccc4c3)cnc2c1N` came in with a GI50 at 72 h in series [1] of 102 µM. The GI50 in series [2] was above 125 µM.
In the case of `COC(=O)c1sc2cc(-c3ccc(C(F)(F)F)cc3)cnc2c1N`, the GI50 at 72 h in series [1] is above 125 µM. In addition, in series [2], the GI50 was above 125 µM.
`COC(=O)c1sc2cc(-c3ccsc3)cnc2c1N`: the GI50 at 72 h in series [1] is 25.2 µM. The molecule further gave a GI50 in series [2] above 125 µM.
Regarding `COC(=O)c1sc2cc(-c3ccc(OC)cc3)cnc2c1N`, in series [1], the GI50 at 72 h is above 125 µM. The concentration for 50% growth inhibition (GI50) in series [2] is above 125 µM.
Take `COC(=O)c1sc2cc(-c3ccccc3N)cnc2c1N`: in series [1], the 50% growth inhibitory concentration (GI50) at 72 h is above 125 µM. This molecule also had a GI50 in series [2] of 21.7 µM.
The molecule `Cc1c2ccncc2c(C)c2c1[nH]c1ccccc12` [ELLIPTECINE] registered a concentration for 50% growth inhibition (GI50) at 72 h in series [1] of 3.3 µM. In series [2], halving of growth (GI50) required 2.9 µM.
In series [1], `COC(=O)c1sc2cc(C#Cc3cccc(N)c3)cnc2c1N` gave a GI50 at 72 h above 125 µM. Further, the outcome in series [3], in series [4] and in series [5] was Active. Besides, in series [2], growth was halved (GI50) at 1.2 µM.
Take `COC(=O)c1sc2cc(-c3cncc4ccccc34)cnc2c1N`: in series [1], it took 25.4 µM to inhibit growth by half (GI50 at 72 h). The molecule further came in with a concentration for 50% growth inhibition (GI50) in series [2] above 125 µM.
Turning to `COC(=O)c1sc2cc(C#Cc3cccc(OC)c3)cnc2c1N`, the 50% growth inhibitory concentration (GI50) at 72 h in series [1] is above 125 µM. Also, the GI50 in series [2] is above 125 µM.
`COC(=O)c1sc2cc(C#Cc3ccc(F)cc3)cnc2c1N` displayed a 50% growth inhibitory concentration (GI50) at 72 h in series [1] above 125 µM. The GI50 in series [2] is above 125 µM.
As to `COC(=O)c1sc2cc(-c3ccc(C#N)cc3)cnc2c1N`, growth in series [1] was halved (GI50 at 72 h) at 96.7 µM. In series [2], this molecule yielded a GI50 above 125 µM.
The like results for `COC(=O)c1sc2cc(-c3cnn(C)c3)cnc2c1N` were, in that order, above 125 µM and above 125 µM.
Molecule `COC(=O)c1sc2cc(C#Cc3ccccc3)cnc2c1N` yielded a GI50 at 72 h in series [1] of 95.7 µM. Besides, the concentration for 50% growth inhibition (GI50) in series [2] is above 125 µM.
For `COC(=O)c1sc2cc(C#Cc3ccccc3OC)cnc2c1N` the same measures were 121 µM and above 125 µM.
In series [1], `COC(=O)c1sc2cc(C#Cc3ccc(N(C)C)cc3)cnc2c1N` returned a concentration for 50% growth inhibition (GI50) at 72 h above 125 µM. For the same molecule, the concentration for 50% growth inhibition (GI50) in series [2] is 67.6 µM.
For `COC(=O)c1sc2cc(-c3cc(OC)cc(OC)c3)cnc2c1N` the same measures were 25 µM and 125 µM.
`COC(=O)c1sc2cc(-c3ccc4ncccc4c3)cnc2c1N` showed a GI50 at 72 h in series [1] of 14.1 µM. Also, the 50% growth inhibitory concentration (GI50) in series [2] is above 125 µM.
In turn, `COC(=O)c1sc2cc(-c3cccnc3)cnc2c1N` came in with a concentration for 50% growth inhibition (GI50) at 72 h in series [1] above 125 µM. The same molecule showed a GI50 in series [2] above 125 µM.
Molecule `COC(=O)c1sc2cc(-c3cnc(OC)nc3OC)cnc2c1N` gave a concentration for 50% growth inhibition (GI50) at 72 h in series [1] of 4.4 µM. The molecule further gave a 50% growth inhibitory concentration (GI50) in series [2] of 23.8 µM.
For `COC(=O)c1sc2cc(-c3ccc(C(C)=O)cc3)cnc2c1N` the same measures were above 125 µM and above 125 µM.
For `COC(=O)c1sc2cc(C#Cc3ccsc3)cnc2c1N` the same measures were 30.7 µM and 30 µM.
The like results for `COC(=O)c1sc2cc(C#Cc3cccnc3)cnc2c1N` were, in that order, above 125 µM and above 125 µM.
In series [1], `COC(=O)c1sc2cc(-c3ccc(OC)nc3)cnc2c1N` registered a GI50 at 72 h above 125 µM. In series [2], this molecule showed a GI50 above 125 µM.
As for `COC(=O)c1sc2cc(-c3ccc(-c4cccs4)s3)cnc2c1N`, the GI50 at 72 h in series [1] was 106 µM. For the same molecule, in series [2], the GI50 was 70.6 µM.
For `COC(=O)c1sc2cc(-c3ccc(F)nc3)cnc2c1N` the same measures were 47 µM and above 125 µM.
The like results for `COC(=O)c1sc2cc(-c3cnc4ccccc4c3)cnc2c1N` were, in that order, 32.5 µM and above 125 µM.
`COC(=O)c1sc2cc(C#Cc3ccc(OC)cc3)cnc2c1N` had a GI50 at 72 h in series [1] of 76.5 µM. The concentration for 50% growth inhibition (GI50) in series [2] was above 125 µM.
`COC(=O)c1sc2cc(C#Cc3ccccc3N)cnc2c1N` showed a GI50 at 72 h in series [1] above 125 µM. This molecule showed a GI50 in series [2] above 125 µM.
In series [1], `COC(=O)c1sc2cc(-c3ccc4c(ccn4C)c3)cnc2c1N` registered a concentration for 50% growth inhibition (GI50) at 72 h of 106 µM. This molecule had a 50% growth inhibitory concentration (GI50) in series [2] of 117 µM.

For the origin of these results see ChEMBL document CHEMBL1914318, “Anti-hepatocellular carcinoma activity using human HepG2 cells and hepatotoxicity of 6-substituted methyl 3-aminothieno[3,2-b]pyridine-2-carboxylate derivatives: in vitro evaluation, cell cycle analysis and QSAR studies” (Eur J Med Chem, 2011).
